From US20190315775A1, “MODIFIED […] AND PHARMACEUTICAL COMPOSITION HAVING SAME AS ACTIVE INGREDIENT” (KEIO UNIVERSITY, priority 2016, published 2019)

Experiments:
[1] = tested on: KMM1 high-risk MM cell line; assay: WST-1 cell proliferation inhibition (Example 8), KMM1; format: cell-based; conditions: Homo sapiens, KMM-1, WST-1, 48 hours, read-out: IC50, cell proliferation inhibitory activity, KMM1
Method: (§1) Similar to Example 7, high-risk MM cell lines were treated with drugs, TC11 and PEG5(E)-TC11 at arbitrary concentrations. […] Specifically, each high-risk MM cell line was prepared at 5×10^5 cells/ml, and then seeded at 50 μl per well (2.5×10^4 cells). Drugs such as TC11, and PEG5(E)-TC11 were added to wells at arbitrary concentrations. WST-1 reagent was added at 48 hours after addition of drugs. After 1 hour of reaction at 37° C. in a CO2 incubator, absorbance was measured at a wavelength of 450 nm using a microplate reader. Cell viability was found from an absorbance ratio using absorbance at 0 μM designated as 100%. IC50 was calculated from a semi-logarithmic chart using Microsoft (registered trademark) Excel.

[2] = biological target: T1, cereblon (CRBN) (Homo sapiens, UniProt Q96SW2); assay: Pull-down assay of cereblon with biotinylated drug on streptavidin beads; format: binding; conditions: 30° C., 30 minutes, FIG. 9A
T1 construct: recombinant full-length CRBN prepared by the above method was reacted with the beads; T7 tag (N); FLAG tag (C); made in house; host or cells: 293T cells (pcDNA3.3 vector), RIPA extract purified on Ni Sepharose excel
T1 sequence (Q96SW2 whole entry): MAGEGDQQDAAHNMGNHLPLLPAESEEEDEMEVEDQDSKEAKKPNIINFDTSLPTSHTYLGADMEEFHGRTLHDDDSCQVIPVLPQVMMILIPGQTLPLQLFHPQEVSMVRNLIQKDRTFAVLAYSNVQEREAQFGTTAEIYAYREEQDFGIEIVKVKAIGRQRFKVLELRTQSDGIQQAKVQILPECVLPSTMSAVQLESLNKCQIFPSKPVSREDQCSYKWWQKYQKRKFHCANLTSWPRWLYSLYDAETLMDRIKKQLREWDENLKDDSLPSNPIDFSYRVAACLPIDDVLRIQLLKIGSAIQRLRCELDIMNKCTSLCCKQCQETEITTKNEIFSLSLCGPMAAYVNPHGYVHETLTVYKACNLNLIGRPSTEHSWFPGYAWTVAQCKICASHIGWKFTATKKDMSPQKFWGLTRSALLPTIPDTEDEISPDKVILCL
Method: CRBN was prepared as follows. A T7 tag was added 5′-upstream of, and a FLAG tag and a histidine tag were added 3′-downstream of a full-length CRBN gene. The gene was introduced into a pcDNA3.3 expression vector (Invitrogen), thereby constructing a plasmid DNA. Next, a Kozak sequence was added 5′-upstream of the T7 tag using a KOD-Plus-Mutagenesis Kit (TOYOBO). The plasmid DNA was transfected into 293T cells. After 4 days of culture at 37° C. with 5% CO2, cells were extracted with a RIPA buffer (Thermo), and then the extracted fraction was purified using Ni Sepharose excel (GE Healthcare). Since the purified fraction contained imidazole, TBS (Nacalai Tesque) was subjected to buffer exchange. […] Centrifugation was performed to separate the resultants into a flow-through (F) fraction and a bead (B) fraction. Protein bands corresponding to CRBN were separated by SDS-PAGE, and then detected by Western blot. […] Note that “I” indicates “Input fraction”.

[3] = tested on: KMS21 high-risk MM cell line; assay: WST-1 cell proliferation inhibition (Example 8), KMS21; format: cell-based; conditions: Homo sapiens, WST-1, 48 hours, read-out: IC50, cell proliferation inhibitory activity, KMS21
Method: as §1

- Binding of CRBN to drug immobilized on beads (pull-down, Western blot) [2]: did not bind
Structure (SMILES): CC(C)c1cccc(C(C)C)c1N1C(=O)c2ccc(N)cc2C1=O [TC11, 2-(2,6-di-isopropylphenyl)-5-amino-1H-isoindole-1,3-dione, reference compound]
- IC50 [1]: 5.7 µM
- IC50 [3]: 1.6 µM
